Measurements as given in patent publication US10683269B2 (MISSION THERAPEUTICS LIMITED, priority 2016, dated 2020).

Target: T1, USP7 (Homo sapiens, UniProt Q93009)
T1 construct: The USP7 construct was PCR amplified and cloned into a pFLAG-CMV-6a vector (Sigma-Aldrich) with an N-terminal FLAG tag; made in house; host or cells: HEK293T
Experiment: USP7 biochemical IC50 assay (fluorescence polarisation, TAMRA labelled peptide linked to ubiquitin via an iso-peptide bond)
Conditions: 30 min pre-incubation of enzyme and compound, read after 2 hr incubation at room temperature, read-out: IC50 range
Outline: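 Fluorescence polarisation at 540 nm excitation/590 nm emission, read immediately and after 2 hr at room temperature, following addition of 50 nM TAMRA-labelled iso-peptide ubiquitin substrate.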

T1 sequence (Q93009 whole entry): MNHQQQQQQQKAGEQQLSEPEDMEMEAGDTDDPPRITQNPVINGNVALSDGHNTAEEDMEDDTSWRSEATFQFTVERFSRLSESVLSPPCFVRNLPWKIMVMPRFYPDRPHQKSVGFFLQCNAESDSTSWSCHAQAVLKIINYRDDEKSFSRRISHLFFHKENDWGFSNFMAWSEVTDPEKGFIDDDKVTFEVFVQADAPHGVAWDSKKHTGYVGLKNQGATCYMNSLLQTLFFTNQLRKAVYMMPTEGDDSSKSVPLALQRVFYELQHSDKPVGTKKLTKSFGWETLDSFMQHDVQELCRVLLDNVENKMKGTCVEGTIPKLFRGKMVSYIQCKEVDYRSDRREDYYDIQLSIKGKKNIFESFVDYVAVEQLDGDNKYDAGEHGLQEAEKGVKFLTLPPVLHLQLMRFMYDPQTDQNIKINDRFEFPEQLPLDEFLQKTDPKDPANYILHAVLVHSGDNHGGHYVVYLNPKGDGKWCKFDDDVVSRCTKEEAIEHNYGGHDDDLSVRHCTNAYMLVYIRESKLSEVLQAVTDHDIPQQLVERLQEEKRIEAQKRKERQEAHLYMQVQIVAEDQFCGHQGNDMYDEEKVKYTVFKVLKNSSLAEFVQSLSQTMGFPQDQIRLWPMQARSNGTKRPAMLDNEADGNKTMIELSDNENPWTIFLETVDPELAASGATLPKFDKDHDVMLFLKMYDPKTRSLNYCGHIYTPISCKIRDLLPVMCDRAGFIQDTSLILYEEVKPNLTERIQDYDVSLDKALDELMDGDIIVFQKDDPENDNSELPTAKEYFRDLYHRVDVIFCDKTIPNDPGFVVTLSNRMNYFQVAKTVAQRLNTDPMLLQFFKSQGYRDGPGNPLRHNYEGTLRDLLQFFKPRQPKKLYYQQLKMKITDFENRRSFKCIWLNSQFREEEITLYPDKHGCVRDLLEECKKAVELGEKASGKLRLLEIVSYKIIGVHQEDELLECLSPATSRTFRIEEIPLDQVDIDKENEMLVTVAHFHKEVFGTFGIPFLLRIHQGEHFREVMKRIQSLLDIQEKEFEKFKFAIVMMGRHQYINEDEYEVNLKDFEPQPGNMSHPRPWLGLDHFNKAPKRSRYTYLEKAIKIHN

IC50 [nM] | Structure (SMILES)
1000 to 10000 | N#CN1Cc2nc(NCC3CCOCC3)cc(-c3ccc(F)cc3)c2C1 [Example 246, 4-(4-fluorophenyl)-2-(((tetrahydro-2H-pyran-4-yl)methyl)amino)-5,7-dihydro-6H-pyrrolo[3,4-b]pyridine-6-carbonitrile]
1000 to 10000 | N#CN1Cc2nc(NCc3ccccn3)cc(-c3ccc(F)cc3)c2C1 [Example 247, 4-(4-fluorophenyl)-2-((pyridin-2-ylmethyl)amino)-5,7-dihydro-6H-pyrrolo[3,4-b]pyridine-6-carbonitrile]
< 1000 | Cn1nccc1CNc1cc(-c2ccc(F)cc2)c2c(n1)CN(C#N)C2 [Example 248, 4-(4-fluorophenyl)-2-(((1-methyl-1H-pyrazol-5-yl)methyl)amino)-5,7-dihydro-6H-pyrrolo[3,4-b]pyridine-6-carbonitrile]
1000 to 10000 | N#CN1Cc2nc(NCC(O)CO)cc(-c3ccc(F)cc3)c2C1 (centres unmarked) [Example 250, 2-((2,3-dihydroxypropyl)amino)-4-(4-fluorophenyl)-5,7-dihydro-6H-pyrrolo[3,4-b]pyridine-6-carbonitrile]
1000 to 10000 | CN(C)C(=O)Cc1cc2c(c(-c3ccccc3)c1)CN(C#N)C2 [Example 251, 2-(2-cyano-7-phenylisoindolin-5-yl)-N,N-dimethylacetamide]
1000 to 10000 | CS(=O)(=O)CCc1cc2c(c(-c3ccccc3)c1)CN(C#N)C2 [Example 252, 6-(2-(methylsulfonyl)ethyl)-4-phenylisoindoline-2-carbonitrile]
1000 to 10000 | CS(=O)(=O)Cc1cc2c(c(-c3ccccc3)c1)CN(C#N)C2 [Example 253, 6-((methylsulfonyl)methyl)-4-phenylisoindoline-2-carbonitrile]
1000 to 10000 | COCCc1cc2c(c(-c3ccc(C#N)cc3)c1)CN(C#N)C2 [Example 254, 4-(4-cyanophenyl)-6-(2-methoxyethyl)isoindoline-2-carbonitrile]
1000 to 10000 | COCCc1cc2c(c(-c3ccccc3C(N)=O)c1)CN(C#N)C2 [Example 255, 2-(2-cyano-6-(2-methoxyethyl)isoindolin-4-yl)benzamide]
1000 to 10000 | N#Cc1ccc(-c2cc(CCc3cccnc3)cc3c2CN(C#N)C3)cc1 [Example 256, 4-(4-cyanophenyl)-6-(2-(pyridin-3-yl)ethyl)isoindoline-2-carbonitrile]
1000 to 10000 | CC(=O)N1CCC(CCc2cc3c(c(-c4ccc(C#N)cc4)c2)CN(C#N)C3)CC1 [Example 257, 6-(2-(1-acetylpiperidin-4-yl)ethyl)-4-(4-cyanophenyl)isoindoline-2-carbonitrile]
1000 to 10000 | N#Cc1ccc(-c2c(F)ccc3c2CN(C#N)C3)c(C(N)=O)c1 [Example 260, 5-cyano-2-(2-cyano-5-fluoroisoindolin-4-yl)benzamide]
1000 to 10000 | N#Cc1ccc(-c2ccc(F)c3c2CN(C#N)C3)c(C(N)=O)c1 [Example 261, 5-cyano-2-(2-cyano-7-fluoroisoindolin-4-yl)benzamide]
1000 to 10000 | CN1CC(c2cc3c(c(-c4ccccc4)c2)CN(C#N)C3)CCC1=O (centres unmarked) [Example 262, 6-(1-methyl-6-oxopiperidin-3-yl)-4-phenylisoindoline-2-carbonitrile]
1000 to 10000 | Cn1cc(-c2cc3c(c(-c4ccccc4)c2)CN(C#N)C3)ccc1=O [Example 263, 6-(1-methyl-6-oxo-1,6-dihydropyridin-3-yl)-4-phenylisoindoline-2-carbonitrile]
1000 to 10000 | N#Cc1ccc(-c2cc(NC(=O)C3CCOCC3)cc3c2CN(C#N)C3)cc1 [Example 264, N-(2-cyano-7-(4-cyanophenyl)isoindolin-5-yl)tetrahydro-2H-pyran-4-carboxamide]

IC50 [nM] | Structure (SMILES)
1000 to 10000 | CN1CC(C(=O)Nc2cc3c(c(-c4ccc(C#N)cc4)c2)CN(C#N)C3)CC1=O (centres unmarked) [Example 265, N-(2-cyano-7-(4-cyanophenyl)isoindolin-5-yl)-1-methyl-5-oxopyrrolidine-3-carboxamide]
1000 to 10000 | CN1CC(C(=O)Nc2cc3c(c(-c4ccc(C#N)cc4)c2)CN(C#N)C3)CCC1=O (centres unmarked) [Example 266, N-(2-cyano-7-(4-cyanophenyl)isoindolin-5-yl)-1-methyl-6-oxopiperidine-3-carboxamide]
< 1000 | CN(C)CC(=O)Nc1cc2c(c(-c3ccc(C#N)cc3)c1)CN(C#N)C2 [Example 267, N-(2-cyano-7-(4-cyanophenyl)isoindolin-5-yl)-2-(dimethylamino)acetamide]
10000 to 30000 | N#CN1Cc2cccc(N3C(=O)CCCC3=O)c2C1 [Example 268, 4-(2,6-dioxopiperidin-1-yl)isoindoline-2-carbonitrile]
1000 to 10000 | CNc1cc2c(c(-c3ccc(C#N)cc3)c1)CN(C#N)C2 [Example 269, 4-(4-cyanophenyl)-6-(methylamino)isoindoline-2-carbonitrile]
< 1000 | CN(C)c1cc2c(c(-c3ccc(C#N)cc3)c1)CN(C#N)C2 [Example 270, 4-(4-cyanophenyl)-6-(dimethylamino)isoindoline-2-carbonitrile]
1000 to 10000 | N#Cc1ccc(-c2cc(NCCO)cc3c2CN(C#N)C3)cc1 [Example 271, 4-(4-cyanophenyl)-6-((2-hydroxyethyl)amino)isoindoline-2-carbonitrile]
1000 to 10000 | CC(C)Nc1cc2c(c(-c3ccc(C#N)cc3)c1)CN(C#N)C2 [Example 272, 4-(4-cyanophenyl)-6-(isopropylamino)isoindoline-2-carbonitrile]
1000 to 10000 | N#Cc1ccc(-c2cc(NC3CCS(=O)(=O)CC3)cc3c2CN(C#N)C3)cc1 [Example 273, 4-(4-cyanophenyl)-6-((1,1-dioxidotetrahydro-2H-thiopyran-4-yl)amino)isoindoline-2-carbonitrile]
1000 to 10000 | N#Cc1ccc(-c2cc(NC3CCOCC3)cc3c2CN(C#N)C3)cc1 [Example 274, 4-(4-cyanophenyl)-6-((tetrahydro-2H-pyran-4-yl)amino)isoindoline-2-carbonitrile]
< 1000 | N#Cc1ccc(-c2cc(NCC3CCOCC3)cc3c2CN(C#N)C3)cc1 [Example 275, 4-(4-cyanophenyl)-6-(((tetrahydro-2H-pyran-4-yl)methyl)amino)isoindoline-2-carbonitrile]
1000 to 10000 | Cn1nccc1CNc1cc2c(c(-c3ccc(C#N)cc3)c1)CN(C#N)C2 [Example 276, 4-(4-cyanophenyl)-6-(((1-methyl-1H-pyrazol-5-yl)methyl)amino)isoindoline-2-carbonitrile]
1000 to 10000 | CCNc1cc2c(c(-c3ccc(C#N)cc3)c1)CN(C#N)C2 [Example 277, 4-(4-cyanophenyl)-6-(ethylamino)isoindoline-2-carbonitrile]
1000 to 10000 | N#Cc1ccc(-c2cc(N3CCS(=O)(=O)CC3)cc3c2CN(C#N)C3)cc1 [Example 278, 4-(4-cyanophenyl)-6-(1,1-dioxidothiomorpholino)isoindoline-2-carbonitrile]
1000 to 10000 | CCN(CC)c1cc2c(c(-c3ccc(C#N)cc3)c1)CN(C#N)C2 [Example 279, 4-(4-Cyanophenyl)-6-(diethylamino)isoindoline-2-carbonitrile]

Structure (SMILES) | IC50 [nM]
CC(=O)Nc1cc(-c2ccc(F)cc2)c2c(n1)CN(C#N)C2 [Example 249, N-(6-cyano-4-(4-fluorophenyl)-6,7-dihydro-5H-pyrrolo[3,4-b]pyridin-2-yl)acetamide] | 1000 to 10000
